23 molecules from the Deep4Chem optical property database can be followed below.

One series can be described thus: solvent given as SMILES. The following applies: in C1CCCCC1.
The molecule `CN(C)C(=O)c1ccc(-c2nc3ccc(N(C)C)cc3s2)cc1` came in with an emission maximum of 415 nm.
Molecule `Cn1nc(-c2ccccc2)c2nc3cc(F)ccc3nc21` registered an emission maximum of 486 nm.
In turn, `CCCCn1c2c(-c3ccc(N(c4ccccc4)c4ccccc4)cc3)cc(C#N)cc2c2cc(C#N)cc(-c3ccc(N(c4ccccc4)c4ccccc4)cc3)c21` returned an emission maximum of 404 nm.
Still for that read-out and setting: with `CCCCC1(CCCC)c2cc(C#Cc3ccc4ccc5cccc6ccc3c4c56)ccc2-c2ccc(C#Cc3ccc4ccc5cccc6ccc3c4c56)cc21` the figure was 433 nm.

Still in this series, the particulars now being: in C1CCOC1.
For the molecule `Cn1nc(-c2ccccc2)c2nc3cc(F)ccc3nc21`, the emission maximum amounted to 520 nm.
The molecule `O=C1C2=C(O[B-](F)(F)[n+]3c2ccc2ccccc23)c2cccc3c(N4CCOCC4)ccc1c23` displayed an emission maximum of 596 nm.
With `CC(C)(C)c1ccc(-c2c(-c3ccc(-n4c5ccccc5c5ccccc54)cc3)c(C#N)c(-c3ccc(-n4c5ccccc5c5ccccc54)cc3)c(-c3ccc(C(C)(C)C)cc3)c2-c2ccc(C(C)(C)C)cc2)cc1`, the emission maximum was 406 nm.
For the molecule `COc1cc(OC)cc(C2=C3C(C)=C(I)C(/C=C/c4ccsc4)=[N+]3[B-](F)(F)n3c(/C=C/c4ccsc4)c(I)c(C)c32)c1`, the emission maximum turned out to be 680 nm.
For `[O-]c1ccccc1/C=N/c1ccccc1/N=C/c1ccccc1[O-]`, the emission maximum is reported as 490 nm.
With `CCCCn1c2c(-c3ccc(N(c4ccccc4)c4ccccc4)cc3)cc(C#N)cc2c2cc(C#N)cc(-c3ccc(N(c4ccccc4)c4ccccc4)cc3)c21`, the emission maximum was 449 nm.
The same measure, in the same setting: then `CCCCC1(CCCC)c2cc(C#Cc3ccc4ccc5cccc6ccc3c4c56)ccc2-c2ccc(C#Cc3ccc4ccc5cccc6ccc3c4c56)cc21`, with 437 nm.
On the same count and under the same terms, with `COc1ccc(-c2c3ccc([nH]3)c3nc(c(-c4ccc([N+](=O)[O-])cc4)c4ccc([nH]4)c4ccc([nH]4)c(-c4ccc(OC)cc4)c4ccc2o4)C=C3)cc1` the figure was 761 nm; with `Cc1ccc(-c2c3ccc([nH]3)c3nc(c(-c4ccc(C#N)cc4)c4ccc([nH]4)c4ccc([nH]4)c(-c4ccc(C)cc4)c4ccc2o4)C=C3)cc1`, 730 nm.
`F[B-]1(F)n2c(/C=C/c3ccc(C(=C(c4ccccc4)c4ccccc4)c4ccccc4)cc3)ccc2C(c2ccccc2)=C2C=CC(/C=C/c3ccc(C(=C(c4ccccc4)c4ccccc4)c4ccccc4)cc3)=[N+]21` returned an emission maximum of 690 nm.
On the same count and under the same terms, with `CCn1c2ccccc2c2cc(-c3cc(-c4ccc5c(c4)c4ccccc4n5CC)nc(SC)n3)ccc21` the figure was 394 nm.

Still in this series, the particulars now being: in C1COCCO1.
Regarding `CCCN1C(=O)C(=CC=CC=C2Oc3ccccc3N2CCCS(=O)(=O)[O-])C(=O)N(CCC)C1=S`, the emission maximum was 584 nm.

Still in this series, the particulars now being: in CC#N.
With `CN(C)C(=O)c1ccc(-c2nc3ccc(N(C)C)cc3s2)cc1`, the emission maximum worked out at 521 nm.
Molecule `Cn1nc(-c2ccccc2)c2nc3cc(F)ccc3nc21` came in with an emission maximum of 535 nm.
Still for that read-out and setting: then `O=C1C2=C(O[B-](F)(F)[n+]3c2ccc2ccccc23)c2cccc3c(N4CCOCC4)ccc1c23`, with 620 nm.
As for `COc1ccc(O)c(-c2[nH]c(=O)n3c2-c2ccccc2C3=O)c1`, the emission maximum was 480 nm.
Same read-out and setting: then `CCCCn1c2c(-c3ccc(N(c4ccccc4)c4ccccc4)cc3)cc(C#N)cc2c2cc(C#N)cc(-c3ccc(N(c4ccccc4)c4ccccc4)cc3)c21`, with 476 nm; and `CCCCC1(CCCC)c2cc(C#Cc3ccc4ccc5cccc6ccc3c4c56)ccc2-c2ccc(C#Cc3ccc4ccc5cccc6ccc3c4c56)cc21`, with 433 nm; and `Oc1ccc2ccccc2c1C1Nc2cccc3cccc(c23)N1`, with 540 nm.
`CCN(CC)c1ccc2c(c1)OC1=C(/C=C/C3=[N+](C)c4ccc5ccccc5c4C3(C)C)CCCC1=C2c1ccccc1C(=O)O` gave an emission maximum of 763 nm.
For the molecule `O=[N+]([O-])c1ccc(/C=C/c2c[nH]c3ccccc23)cc1`, the emission maximum stood at 642 nm.
`CN(C)c1ccc(/C=C/C=C/c2ccc(C#N)cc2)cc1` showed an emission maximum of 589 nm.
The same measure, in the same setting: with `O=c1oc2ccccc2cc1-c1cc2ccccc2o1` the figure was 442 nm.

The same series, now with this note: in CC(C)(C)c1ccc(-n2c3ccc([Si](c4ccccc4)(c4ccccc4)c4ccccc4)cc3c3cc([Si](c4ccccc4)(c4ccccc4)c4ccccc4)ccc32)cc1.
As to `Cc1cc(C)c(C)c(B(c2c(C)c(C)c(N3c4ccccc4Oc4ccccc43)c(C)c2C)c2c(C)c(C)c(N3c4ccccc4Oc4ccccc43)c(C)c2C)c1C`, the emission maximum stood at 484 nm.

Still in this series, the particulars now being: in CC(C)=O.
Consider `CCCN1C(=O)C(=CC=CC=C2Oc3ccccc3N2CCCS(=O)(=O)[O-])C(=O)N(CCC)C1=S`, for which the emission maximum is 580 nm.

Staying with this series, now noted: in CC(C)O.
`CN(C)C(=O)c1ccc(-c2nc3ccc(N(C)C)cc3s2)cc1` returned an emission maximum of 518 nm.

The same series, now with this note: in CCCC#N.
Molecule `CN(C)c1ccc(/C=C/C=C/c2ccc(C#N)cc2)cc1` returned an emission maximum of 579 nm.

Still in this series, the particulars now being: in CCCCCC.
In turn, `CN(C)c1ccc(/C=C/C=C/c2ccc(C#N)cc2)cc1` gave an emission maximum of 440 nm.

Still in this series, the particulars now being: in CCCCCCC.
As for `O=[N+]([O-])c1ccc(/C=C/c2c[nH]c3ccccc23)cc1`, the emission maximum was found to be 511 nm.

The same series, now with this note: in CCCCO.
On to `CCCN1C(=O)C(=CC=CC=C2Oc3ccccc3N2CCCS(=O)(=O)[O-])C(=O)N(CCC)C1=S`, for which the emission maximum was determined as 583 nm.

The same series, now with this note: in CCCCOCCCC
Consider `CCCCn1c2c(-c3ccc(N(c4ccccc4)c4ccccc4)cc3)cc(C#N)cc2c2cc(C#N)cc(-c3ccc(N(c4ccccc4)c4ccccc4)cc3)c21`, for which the emission maximum is on record as 419 nm.

Staying with this series, now noted: in CCCO.
Turning to `CCCN1C(=O)C(=CC=CC=C2Oc3ccccc3N2CCCS(=O)(=O)[O-])C(=O)N(CCC)C1=S`, the emission maximum turned out to be 581 nm.

The same series, now with this note: in CCN(CC)CC.
`CCCCn1c2c(-c3ccc(N(c4ccccc4)c4ccccc4)cc3)cc(C#N)cc2c2cc(C#N)cc(-c3ccc(N(c4ccccc4)c4ccccc4)cc3)c21` gave an emission maximum of 415 nm.

The series is the same for the next values; noted with them: in CCO.
`O=C1C2=C(O[B-](F)(F)[n+]3c2ccc2ccccc23)c2cccc3c(N4CCOCC4)ccc1c23` yielded an emission maximum of 584 nm.
In the case of `CCCN1C(=O)C(=CC=CC=C2Oc3ccccc3N2CCCS(=O)(=O)[O-])C(=O)N(CCC)C1=S`, the emission maximum came out at 579 nm.
Still for that read-out and setting: with `CCN(CC)c1ccc2c(c1)OC1=C(/C=C/C3=[N+](C)c4ccc5ccccc5c4C3(C)C)CCCC1=C2c1ccccc1C(=O)O` the figure was 750 nm; with `c1ccc(-n2c3ccccc3c3ccccc32)cc1`, 344 nm; with `CCOC(=O)c1cc(C(=O)OCC)c2ccc(C)cc2n1`, 422 nm.

The series is the same for the next values; noted with them: in CCOC(C)=O.
Take `CCCCn1c2c(-c3ccc(N(c4ccccc4)c4ccccc4)cc3)cc(C#N)cc2c2cc(C#N)cc(-c3ccc(N(c4ccccc4)c4ccccc4)cc3)c21`: the emission maximum stood at 443 nm.
The same measure, in the same setting: then `CCCCC1(CCCC)c2cc(C#Cc3ccc4ccc5cccc6ccc3c4c56)ccc2-c2ccc(C#Cc3ccc4ccc5cccc6ccc3c4c56)cc21`, with 433 nm.
Same read-out and setting: then `CCn1c2ccccc2c2cc(-c3cc(-c4ccc5c(c4)c4ccccc4n5CC)nc(SC)n3)ccc21`, with 392 nm.
On the same count and under the same terms, then `O=c1oc2ccccc2cc1-c1cc2ccccc2o1`, with 433 nm.

The series is the same for the next values; noted with them: in CCOCC.
Regarding `CCCCn1c2c(-c3ccc(N(c4ccccc4)c4ccccc4)cc3)cc(C#N)cc2c2cc(C#N)cc(-c3ccc(N(c4ccccc4)c4ccccc4)cc3)c21`, the emission maximum is recorded as 430 nm.
`CN(C)c1ccc(/C=C/C=C/c2ccc(C#N)cc2)cc1` yielded an emission maximum of 509 nm.

Still in this series, the particulars now being: in CN(C)C=O.
For the molecule `CCCCn1c2c(-c3ccc(N(c4ccccc4)c4ccccc4)cc3)cc(C#N)cc2c2cc(C#N)cc(-c3ccc(N(c4ccccc4)c4ccccc4)cc3)c21`, the emission maximum is 476 nm.
`CCCCC1(CCCC)c2cc(C#Cc3ccc4ccc5cccc6ccc3c4c56)ccc2-c2ccc(C#Cc3ccc4ccc5cccc6ccc3c4c56)cc21` showed an emission maximum of 441 nm.
`CCn1c2ccccc2c2cc(-c3cc(-c4ccc5c(c4)c4ccccc4n5CC)nc(SC)n3)ccc21` had an emission maximum of 421 nm.
The molecule `CCn1c2ccccc2c2c3nsnc3c3c4ccccc4n(CC)c3c21` registered an emission maximum of 500 nm.

Still in this series, the particulars now being: in CO.
In turn, `CN(C)C(=O)c1ccc(-c2nc3ccc(N(C)C)cc3s2)cc1` had an emission maximum of 543 nm.
On to `O=C1C2=C(O[B-](F)(F)[n+]3c2ccc2ccccc23)c2cccc3c(N4CCOCC4)ccc1c23`, for which the emission maximum is reported as 564 nm.
`COc1ccc(O)c(-c2[nH]c(=O)n3c2-c2ccccc2C3=O)c1` gave an emission maximum of 500 nm.
